# “Also recorded” adds a separate entry of the source.
# How the values were obtained:
# [1] = target: T1, PPARα (Homo sapiens, UniProt Q07869); conditions: cited from earlier work
# T1 sequence (Q07869 1-468): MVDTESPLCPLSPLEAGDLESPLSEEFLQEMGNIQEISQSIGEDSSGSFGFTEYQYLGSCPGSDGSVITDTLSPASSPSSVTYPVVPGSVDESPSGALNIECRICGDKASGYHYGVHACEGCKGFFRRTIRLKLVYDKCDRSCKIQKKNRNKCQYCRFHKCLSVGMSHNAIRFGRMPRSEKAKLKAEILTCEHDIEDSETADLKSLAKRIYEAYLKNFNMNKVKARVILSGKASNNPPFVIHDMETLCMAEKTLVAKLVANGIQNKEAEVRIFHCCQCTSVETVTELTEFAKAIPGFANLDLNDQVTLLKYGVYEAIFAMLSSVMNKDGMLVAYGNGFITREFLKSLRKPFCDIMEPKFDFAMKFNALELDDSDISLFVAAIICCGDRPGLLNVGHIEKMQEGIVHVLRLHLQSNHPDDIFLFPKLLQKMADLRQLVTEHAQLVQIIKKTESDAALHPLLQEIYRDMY
# [2] = system: mouse model of human alcoholic hepatitis; test: AH (NIAAA) mouse model, 8-week efficacy and safety study, alone and with prednisolone
# Text: Mice were fed with the ethanol diet for four weeks, followed by 4 weeks of intervention (8 weeks total treatment).
# Livers were collected at the end-point from all mice and weighed. Liver samples were processed for histology to assess steatosis, inflammatory infiltrates and fibrosis. Briefly, liver tissue was fixed in 4% paraformaldehyde and paraffin-embedded, sectioned into 5 m thickness, and stained with hematoxylin-eosin (H&E), Oil-Red O staining, and Masson's trichrome staining.
# Safety testing: The safety of indeglitazar treatment was assessed by body weight measurements and full necropsy at endpoint. Mice were terminated from the experiment by isoflurane anesthesia and blood was collected by a cardiac bleed into EDTA-treated tubes, and then centrifuged to obtain plasma to conduct clinical chemistry including full liver and renal toxicology panel. A portion of the liver was analyzed for liver triglycerides and cholesterol levels by biochemical assays. […] Hearts were weighted and fixed in 10% NBF, paraffin embedded, and sectioned into 4-μm thick slices. H&E staining was used to investigate myocardial cell hypertrophy, and ventricle diameters by microscopy.
# [3] = system: adipocyte differentiation; conditions: compared with full PPAR γ-agonists like pioglitazone; cited from earlier work
# [4] = system: carbon tetrachloride (CCl4)-treated mice model of human NAFLD, NASH, and hepatic fibrosis; test: CCl4-treated mouse model of human NAFLD, NASH and hepatic fibrosis; assay type: in vivo; conditions: vs CCl4 vehicle
# Text: Mouse model generation and treatment. C57Bl/6 mice (6-week-old, males) were purchased from Jackson Laboratories and were housed under specific pathogen-free conditions. All experiment protocols were approved by the Institutional Animal Care and Use Committee (IACUC) of Pleiogenix, or its research partners. The mice were acclimated for a minimum of seven days prior to initiation of treatment (Sanyal A J et al., N Engl J Med, (2010), 362:1675-85). The mice were fed Purina normal chow and drinking water ad libitum during the acclimation period. After acclimation, the mice were randomized based on body weight (bw). A total of 22 mice were used; and treated as described in Table 1. Briefly, on day 0, mice were treated according to Table 4.
# Liver fibrosis was induced as previously described (Nesto R W et al., Circulation, (2003), 108:2941-8). Carbon tetrachloride (CCl4), formulated in mineral oil, was administered twice per week i.p. at 1 μl/gram body weight throughout the study duration (8 wks). Indeglitazar was administered daily by oral gavage at 30 mg/kg body weight throughout the study duration (8 wks). Mice were observed daily for clinical signs. Any observations noted outside of the scheduled observations were documented as unscheduled. Assessments included, but were not be limited to, assessment of activity, posture, respiration, emesis, seizure, hydration status, injection site irritation, and overall body condition. The absence or presence of findings were recorded.
# Individual body weights were recorded on all animals prior to the initiation of the study and weekly body weights were recorded. Blood was collected and plasma was measured for alanine aminotransferase (ALT) and aspartate aminotransferase (AST) and on weeks 0 (baseline), 4, and wk 8 (terminal). At the end of the study, liver necropsy was performed including weighing and processing for histology, and frozen at −80° C. for the following downstream analyses: Liver histopathology: hematoxyline and eosin (H&E) staining (Kumar P et al., PLOS ONE, (2014), 9:e110405); Sirius Red staining for fibrosis (Nesto R W et al., Circulation, (2003), 108:2941-8). Biochemical markers of human hepatic fibrosis and anti-fibrotic adipokine, adiponectin: hepatic hydroxyproline (Nesto R W et al., Circulation, (2003), 108:2941-8); plasma TGFβ1 (Fischer A H et al., CSH Protoc, (2008), 2008:pdb.prot4986); adiponectin (Guo J C et al., Zhonghua Shi Yan He Lin Chuang Bing Du Xue Za Zhi, (2008), 22:354-7).
# […]
# [5] = target: T2, PPARδ (Homo sapiens, UniProt Q03181); conditions: cited from earlier work
# T2 sequence (Q03181 1-441): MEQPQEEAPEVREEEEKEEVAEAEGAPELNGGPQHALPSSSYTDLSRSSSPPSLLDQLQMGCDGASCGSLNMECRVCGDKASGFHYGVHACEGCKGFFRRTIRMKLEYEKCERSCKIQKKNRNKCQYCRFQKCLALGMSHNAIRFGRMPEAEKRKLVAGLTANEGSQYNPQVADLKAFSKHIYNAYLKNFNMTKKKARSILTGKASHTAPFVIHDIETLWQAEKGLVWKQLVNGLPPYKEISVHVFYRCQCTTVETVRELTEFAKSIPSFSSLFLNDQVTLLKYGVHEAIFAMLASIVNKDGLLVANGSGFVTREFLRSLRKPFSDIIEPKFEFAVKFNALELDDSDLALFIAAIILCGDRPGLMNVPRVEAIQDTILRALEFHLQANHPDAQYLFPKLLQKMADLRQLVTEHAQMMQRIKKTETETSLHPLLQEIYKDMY
# [6] = indeglitazar 50 mg/kg, prednisolone 10 mg/kg, vs EtOH-treated vehicle control
# [7] = indeglitazar 50 mg/kg, prednisolone 10 mg/kg, vs ethanol-treated vehicle control
# [8] = indeglitazar 50 mg/kg, prednisolone 10 mg/kg, vs vehicle+EtOH
# [9] = indeglitazar 50 mg/kg/day, prednisolone 10 mg/kg/day, vs ethanol-treated vehicle control
# [10] = indeglitazar 50 mg/kg/day, prednisolone 10 mg/kg/day, vs ethanol-treated vehicle control, listed as indeglitazar
# [11] = 30 mg/kg/day oral gavage, 8 wks, male mice
smiles,measurement,setting,value
"COc1ccc(S(=O)(=O)n2cc(CCC(=O)O)c3cc(OC)ccc32)cc1 [Indeglitazar, 3-[5-methoxy-1-(4-methoxybenzenesulfonyl)-1H-indol-3-yl]-propanoic acid]",agonism against PPARα,[1],full agonism
same,"liver histopathology: steatosis, hepatocellular karyomegaly, and ballooning","[2]; indeglitazar 50 mg/kg, prednisolone 10 mg/kg, data not shown",reduced significantly
same,effect on liver hydroxyproline,[2]; [6],significant decrease
same,effect on plasma adiponectin,[2]; [6],significant increase
same,effect on ALT,[2]; [7],significant decreases
same,effect on AST,[2]; [7],significant decreases
same,effect on plasma TGFβ,[2]; [7],significant decrease
same,effect on total bilirubin,[2]; [7],decrease; also recorded: significant decreases
same,decrease of liver TG,[2]; [8],28%
same,decrease of plasma TGFβ,[2]; [8],66%
same,decrease of plasma TNF-α,[2]; [8],50%
same,increase of adiponectin,[2]; [8],31%
same,decrease of hydroxyproline,"[2]; indeglitazar 50 mg/kg, prednisolone 10 mg/kg, vs vehicle+EtOH, P<0.0001",31%
same,effect on body weight,[2]; [9],no significant effect
same,effect on gamma-glutamyl transferase (GGT),[2]; [9],no significant effect
same,effect on heart weight (actual),[2]; [9],no significant effect
same,effect on heart weight divided by body weight×100,[2]; [9],no significant effect
same,effect on body weight,[2]; [10],"Neither EtOH (vs no EtOH vehicle control), indeglitazar, or prednisolone had a significant effect"
same,effect on heart weight (actual),[2]; [10],"Neither EtOH (vs no EtOH vehicle control), indeglitazar, or prednisolone had a significant effect"
same,effect on overall survival,"[2]; indeglitazar 50 mg/kg/day, prednisolone 10 mg/kg/day, vs ethanol-treated vehicle control, male and female mice",significant increase; also recorded: significantly increased
same,promoting adipocyte differentiation,[3],less potent
same,effect on liver hydroxyproline,[4]; [11],significantly reduces
same,effect on plasma TGF-β1,[4]; [11],significantly reduces
same,effect on plasma adiponectin,[4]; [11],significantly increases
same,magnitude of increase of plasma adiponectin,[4]; 30 mg/kg/day,approximately 125%
same,magnitude of reduction of hydroxyproline,[4]; 30 mg/kg/day,approximately 25%
same,magnitude of reduction of plasma TGFβ1,[4]; 30 mg/kg/day,approximately 30%
same,agonism towards PPARδ,[5],partial agonism

# Reference: patent US12485106B2, “Methods of treating fibrotic liver diseases or conditions with indeglitazar” (PLEIOGENIX INC., priority 2023, dated 2025)
